Test results: patent US11802127B2, “3,4-dihydro-2,7-naphthyridine-1,6(2H,7H)-diones as MEK inhibitors” (Pfizer Inc., priority 2021, dated 2023)

Columns and labels:
[1] = Moisture sorption analysis of solid forms; format: physicochemical; conditions: 25° C.
Method: Water sorption and desorption studies were conducted on automated vapor sorption analyzer (TA instruments Q5000 SA). The microbalance was calibrated using a 100 mg standard weight. The relative humidity sensor was calibrated at 5.0, 11.3, 32.8, 52.8, 75.3, and 84.3% RH (25° C.) using saturated salt solutions. Approximately 10-20 mg of crystalline monohydrate 8-((2-fluoro-4-(methylthio)phenyl)amino)-2-(2-hydroxyethoxy)-7-methyl-3,4-dihydro-2,7-naphthyrdine-1,6(2H,7H)-dione, Form 3 was placed in the quartz sample holder and dried at ≤3% relative humidity (RH) at 25° C. […] A maximum equilibration time of 120 minutes was used for all steps. The weight gain at each of the % RH steps is based on the weight after the initial drying step at 0% RH. The weight change of the sample was not used to assess equilibrium and instead all steps were programed to be 120 minutes. After data collection was complete, data analysis was performed using commercially available TA universal analysis software and Microsoft Excel.
FIG. 5 depicts the sorption isotherm of crystalline monohydrate 8-((2-fluoro-4-(methylthio)phenyl)amino)-2-(2-hydroxyethoxy)-7-methyl-3,4-dihydro-2,7-naphthyridine-1,6(2H,7H)-dione, Form 3. […] Crystalline anhydrous 8-((2-fluoro-4-(methylthio)phenyl)amino)-2-(2-hydroxyethoxy)-7-methyl-3,4-dihydro-2,7-naphthyridine-1,6(2H,7H)-dione, Form 2 rehydrates to crystalline monohydrate 8-((2-fluoro-4-(methylthio)phenyl)amino)-2-(2-hydroxyethoxy)-7-methyl-3,4-dihydro-2,7-naphthyridine-1,6(2H,7H)-dione, Form 3 at 25% RH at 25° C. as confirmed by PXRD analysis. Based on this analysis, crystalline anhydrous 8-((2-fluoro-4-(methylthio)phenyl)amino)-2-(2-hydroxyethoxy)-7-methyl-3,4-dihydro-2,7-naphthyridine-1,6(2H,7H)-dione, Form 2 is stable below 10% RH at 25° C., and crystalline monohydrate 8-((2-fluoro-4-(methylthio)phenyl)amino)-2-(2-hydroxyethoxy)-7-methyl-3,4-dihydro-2,7-naphthyridine-1,6(2H,7H)-dione, Form 3 is stable above 30% RH at 25° C.

[2] = MDR1 LLC-PK1 and BCRP MDCKII Permeability Assay: permeability coefficient (Papp); format: in vitro ADME; conditions: MDCK, test article 1 μM, 37° C.
In short: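 Bidirectional (A to B, B to A) transport of test article (1 μM, 1% organic) across MDR1-transfected LLC-PK1 or BCRP-transfected MDCKII (canine P-gp knockout) monolayers, 2 h at 37° C., 5% CO2, in triplicate. Lucifer yellow monitored monolayer integrity. Concentrations measured by LC-MS/MS against labetalol internal standard.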

[3] = test system: ERK1/2(Thr202/Tyr204) phosphorylation (MEK-dependent) in A375 cells; experiment: Cellular Phospho-p44/42 MAPK (Erk1/2) (Thr202/Tyr204) Assay; format: cell-based; conditions: Homo sapiens, A-375, 1-hour incubation, pERK1/2 (Thr202/Tyr204) In-Cell Western normalized to GAPDH
In short: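 A375 cells exposed 1 h to 10-point 1:3 dilutions (top 20–1 μM, 0.5% DMSO), then fixed and stained for pERK1/2 (Thr202/Tyr204) by In-Cell Western. Signal normalized to GAPDH per well; DMSO and 1 μM reference inhibitor define 0 and 100% inhibition.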

[4] = target: T1, P-gp (MDR1) (Homo sapiens, UniProt P08183); experiment: Efflux ratio in MDR1 transfected LLC-PK1 cells; format: in vitro ADME; conditions: pig, Papp(B−A)/Papp(A−B)
T1 construct: expressed in transfected cells; host or cells: LLC-PK1 (porcine kidney) cells transfected with MDR1
In short: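 LLC-PK1 cells transfected with MDR1, test article at 1 μM (1% organic), transport measured A→B and B→A over 2 h at 37° C. Monolayer integrity checked with lucifer yellow, compound quantified by LC-MS/MS. Efflux ratio = Papp(B−A)/Papp(A−B).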

[5] = target: T2, BCRP (hBCRP) (Homo sapiens, UniProt Q9UNQ0); experiment: Efflux ratio in BCRP transfected MDCKII canine P-gp knockout cells; format: in vitro ADME; conditions: Papp(B−A)/Papp(A−B), read-out: Efflux ratio MDCKII-hBCRP knock-in,canine pg-P KO
T2 construct: expressed in transfected cells; host or cells: MDCKII (canine kidney) cells, canine P-gp knockout, transfected with BCRP
T2 sequence (Q9UNQ0 1-655): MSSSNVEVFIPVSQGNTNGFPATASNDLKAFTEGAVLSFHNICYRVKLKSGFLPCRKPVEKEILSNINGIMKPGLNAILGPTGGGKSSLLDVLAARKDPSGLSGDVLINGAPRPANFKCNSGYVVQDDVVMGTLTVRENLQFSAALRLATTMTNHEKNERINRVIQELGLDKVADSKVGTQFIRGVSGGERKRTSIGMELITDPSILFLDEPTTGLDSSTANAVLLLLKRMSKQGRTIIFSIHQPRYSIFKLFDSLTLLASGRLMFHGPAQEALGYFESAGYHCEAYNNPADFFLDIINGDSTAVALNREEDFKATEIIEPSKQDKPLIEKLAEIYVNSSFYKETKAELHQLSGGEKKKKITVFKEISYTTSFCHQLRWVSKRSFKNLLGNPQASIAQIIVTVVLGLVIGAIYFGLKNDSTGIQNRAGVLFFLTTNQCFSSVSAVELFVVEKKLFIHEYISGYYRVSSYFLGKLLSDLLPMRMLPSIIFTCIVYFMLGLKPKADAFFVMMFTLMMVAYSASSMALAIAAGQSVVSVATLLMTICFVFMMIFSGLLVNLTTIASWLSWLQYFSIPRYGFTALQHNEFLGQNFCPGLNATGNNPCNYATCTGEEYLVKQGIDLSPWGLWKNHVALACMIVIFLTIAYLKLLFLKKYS
In short: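 Test article at 1 μM final (1% organic) in A→B and B→A directions across MDCKII P-gp knockout monolayers expressing BCRP, 2 h at 37° C., triplicate; lucifer yellow checked monolayer integrity. Concentrations by LC-MS/MS against labetalol internal standard; efflux ratio = Papp(B−A)/Papp(A−B).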

T1 sequence (P08183 whole entry): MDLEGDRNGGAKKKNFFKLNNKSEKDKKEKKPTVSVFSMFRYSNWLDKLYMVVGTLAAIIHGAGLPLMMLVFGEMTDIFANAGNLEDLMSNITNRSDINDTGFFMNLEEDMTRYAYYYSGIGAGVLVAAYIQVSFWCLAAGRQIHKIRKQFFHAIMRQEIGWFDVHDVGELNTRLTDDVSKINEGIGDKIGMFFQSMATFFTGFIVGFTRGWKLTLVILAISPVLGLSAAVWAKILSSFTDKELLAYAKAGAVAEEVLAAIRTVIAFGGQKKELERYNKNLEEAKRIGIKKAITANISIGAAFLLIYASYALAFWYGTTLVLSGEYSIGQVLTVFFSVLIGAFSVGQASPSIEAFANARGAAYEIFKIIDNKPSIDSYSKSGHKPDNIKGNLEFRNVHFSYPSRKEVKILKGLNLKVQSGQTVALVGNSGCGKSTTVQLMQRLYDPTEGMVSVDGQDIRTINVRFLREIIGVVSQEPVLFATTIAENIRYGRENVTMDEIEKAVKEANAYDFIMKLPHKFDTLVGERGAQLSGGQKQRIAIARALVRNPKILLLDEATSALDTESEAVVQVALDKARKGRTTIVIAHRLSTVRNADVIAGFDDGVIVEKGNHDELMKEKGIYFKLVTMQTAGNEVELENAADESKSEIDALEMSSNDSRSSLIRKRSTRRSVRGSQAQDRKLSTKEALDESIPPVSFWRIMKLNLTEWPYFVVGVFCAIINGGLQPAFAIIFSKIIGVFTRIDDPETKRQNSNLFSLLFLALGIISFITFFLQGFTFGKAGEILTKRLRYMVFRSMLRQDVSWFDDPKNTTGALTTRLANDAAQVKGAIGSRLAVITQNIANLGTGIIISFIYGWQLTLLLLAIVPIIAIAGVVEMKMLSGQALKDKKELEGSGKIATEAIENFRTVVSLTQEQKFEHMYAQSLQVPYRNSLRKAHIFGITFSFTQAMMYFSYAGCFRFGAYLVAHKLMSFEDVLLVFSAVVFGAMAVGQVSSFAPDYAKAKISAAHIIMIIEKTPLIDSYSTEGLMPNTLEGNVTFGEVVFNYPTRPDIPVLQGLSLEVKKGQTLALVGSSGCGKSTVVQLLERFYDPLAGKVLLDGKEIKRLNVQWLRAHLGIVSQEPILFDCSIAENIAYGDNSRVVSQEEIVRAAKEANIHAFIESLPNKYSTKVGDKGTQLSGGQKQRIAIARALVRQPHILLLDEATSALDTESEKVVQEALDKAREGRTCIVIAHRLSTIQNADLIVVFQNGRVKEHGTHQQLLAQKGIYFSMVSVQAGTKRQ

Compound | relative humidity at which the solid form is stable [1] | relative humidity at which anhydrous Form 2 rehydrates to monohydrate Form 3 ([1]; confirmed by PXRD) [% RH] | relative humidity at which monohydrate Form 3 dehydrates to anhydrous Form 2 ([1]; confirmed by PXRD) [% RH] | Papp at 2 h, 1 μM [2] [×10⁻⁶ cm/s] | IC50 [3] [nM] | efflux ratio at 2 h, 1 μM [4] | efflux ratio at 2 h, 1 μM [5]
CSc1ccc(Nc2c3c(cc(=O)n2C)CCN(OCCO)C3=O)c(F)c1 [Form 2, 8-((2-fluoro-4-(methylthio)phenyl)amino)-2-(2-hydroxyethoxy)-7-methyl-3,4-dihydro-2,7-naphthyridine-1,6(2H,7H)-dione] | below 10 % RH | 25 | – | – | – | – | –
CSc1ccc(Nc2c3c(cc(=O)n2C)CCN(OCCO)C3=O)c(F)c1 [Form 3, 8-((2-fluoro-4-(methylthio)phenyl)amino)-2-(2-hydroxyethoxy)-7-methyl-3,4-dihydro-2,7-naphthyridine-1,6(2H,7H)-dione] | above 30 % RH | – | 15 | – | – | – | –
Cn1c(Nc2ccc(Br)cc2F)c2c(cc1=O)CCN(C1CC1)C2=O [Example 1] | – | – | – | 27.2 | 562 | 1.4 | 1.1
